Tests used:
Assay in all cases: relative viability (nuclei count vs DMSO), 5 days (fraction); higher = more cells survive
TGX 221 + Navitoclax = compound: CC1=CN2C(=O)C=C(N=C2C(=C1)C(C)NC3=CC=CC=C3)N4CCOCC4 [TGX 221] + CC1(C)CCC(c2ccc(Cl)cc2)=C(CN2CCN(c3ccc(C(=O)NS(=O)(=O)c4ccc(N[C@H](CCN5CCOCC5)CSc5ccccc5)c(S(=O)(=O)C(F)(F)F)c4)cc3)CC2)C1 [Navitoclax] (partner 0.5 µM)
Outline: (§1)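 Relative viability equals treated-well nuclei counts divided by vehicle-well nuclei counts. Counts came from 4× images of lung cancer cell lines grown in 1536-well plates for 5 days after pin-tool dosing on the day after seeding. Dosing used one drug alone or a fixed anchor-drug dose plus five library-drug doses (not always all listed) in √10 steps, and values are medians of duplicate plates.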

TGX 221 + Alpelisib = compound: CC1=CN2C(=O)C=C(N=C2C(=C1)C(C)NC3=CC=CC=C3)N4CCOCC4 [TGX 221] + Cc1nc(NC(=O)N2CCC[C@H]2C(N)=O)sc1-c1ccnc(C(C)(C)C(F)(F)F)c1 [Alpelisib] (partner 2 µM)
Outline: as §1

TGX 221 + Foretinib = compound: CC1=CN2C(=O)C=C(N=C2C(=C1)C(C)NC3=CC=CC=C3)N4CCOCC4 [TGX 221] + COc1cc2c(Oc3ccc(NC(=O)C4(C(=O)Nc5ccc(F)cc5)CC4)cc3F)ccnc2cc1OCCCN1CCOCC1 [Foretinib] (partner 0.25 µM)
Outline: as §1

[1] = compound: O=C(CCCCCCNC(=O)c1cnc(N(c2ccccc2)c2ccccc2)nc1)NO [Ricolinostat] + CC(=O)Nc1cccc(-n2c(=O)n(C3CC3)c(=O)c3c(Nc4ccc(I)cc4F)n(C)c(=O)c(C)c32)c1 [Trametinib] (partner 0.02 µM)
Outline: as §1

Cell Line	relative viability (TGX 221 + Navitoclax; first compound 0.08 µM)	relative viability (TGX 221 + Navitoclax; first compound 0.253 µM)	relative viability (TGX 221 + Navitoclax; first compound 0.8 µM)	relative viability (TGX 221 + Navitoclax; first compound 2.53 µM)	relative viability (TGX 221 + Navitoclax; first compound 8 µM)	relative viability (TGX 221 + Alpelisib; first compound 0.08 µM)	relative viability (TGX 221 + Alpelisib; first compound 0.253 µM)	relative viability (TGX 221 + Alpelisib; first compound 0.8 µM)	relative viability (TGX 221 + Alpelisib; first compound 2.53 µM)	relative viability (TGX 221 + Alpelisib; first compound 8 µM)	relative viability (TGX 221 + Foretinib; first compound 0.08 µM)	relative viability (TGX 221 + Foretinib; first compound 0.253 µM)	relative viability (TGX 221 + Foretinib; first compound 0.8 µM)	relative viability (TGX 221 + Foretinib; first compound 2.53 µM)	relative viability (TGX 221 + Foretinib; first compound 8 µM)	relative viability ([1]; first compound 0.08 µM)	relative viability ([1]; first compound 0.253 µM)	relative viability ([1]; first compound 0.8 µM)	relative viability ([1]; first compound 2.53 µM)
NCI-H322M	1.13	1.19	1.14	0.911	1.33	0.8	0.64	0.64	0.687	0.505	0.924	0.869	1	0.763	0.765	0.431	0.539	0.611	0.564
NCI-H520	1.24	0.944	1.03	0.756	0.648	0.696	0.45	0.42	0.243	0.254	0.582	0.544	0.509	0.372	0.427		0.735	0.621	0.613
LC-2-ad	0.514		0.424	0.348	0.361	0.81		0.722	0.645	0.62	0.865	0.85	0.95	0.825	0.751	0.899	0.911	0.907	0.836
NCI-H596	0.996	0.863	0.969	0.902	0.886	0.423	0.419	0.445	0.403	0.387	0.844	0.928	0.856	0.894	0.797	0.818	0.751	0.785	0.904
LCLC-97TM1	0.389	0.264	0.42	0.464	0.481	0.261	0.246	0.287	0.199	0.214	0.949	1.01	0.904	0.959	0.802	0.195	0.182	0.25	0.287
NCI-H1437	1.05	1.07	1.11	1.07	0.893	0.892	0.851	0.889	0.66	0.487	1.26	1.21	1.25	1.19	1.06	0.458	0.502	0.392	0.356
NCI-H1915	0.788	0.765	0.779	0.79	0.775	1	0.999	1.08	1.1	1.01	0.941	1.07	1.08	1.04	1.05	0.261	0.31	0.309	0.3

— the supplement of paper PMC10307832
